≈ marks a conversion by molar mass, not a printed value. Read-outs that look alike come from different tables or passages of the source.
Legend:
[1] = comparison surfactant / block copolymers; cited from earlier work
[2] = cited from earlier work
[3] = cited from earlier work; remark: listed apart in the source
[4] = tested on: MCF-7 human breast cancer cells; test: In vitro cytotoxicity, MTT assay; format: cell-based; details: MCF7, 120 h, doxorubicin 15.62 nM to 1000 nM, MTT on day 5
Description: […]. On day 5 cytotoxicity analysis was performed using an MTT assay. Data points represents average±SE (n=4). […].
The cells were washed twice with ice cold phosphate buffer and replaced with fresh media. Media was replaced for every 48 hours. At day 5, cytotoxicity analysis was performed using the MTT assay.

[5] = tested on: JC mouse breast cancer cells; test: In vivo biodistribution in allograft breast tumor mouse model; details: i.v.; 3 hours after administration
Description: The tumor model was developed by subcutaneous injection of JC mouse breast cancer cells. […] Animals were sacrificed 3 hours after treatment administration. Tumor and organs were collected. Doxorubicin concentration in tumors and organs were determined using a fluorescence based isocratic HPLC method. […] Female nude mice (Charles River Laboratories, Wilmington, Mass.) were used in the study. JC mouse breast cancer cells (1×10^7 cells) were suspended in PBS and injected subcutaneously. […] After 3 hours, the mice were sacrificed and organs (liver, heart, lungs, spleen, brain and tumor) were collected and homogenized in 2 mL deionized water using a tissue homogenizer. After addition of 100 ng of daunorubicin (internal standard), tissue homogenates were lyophilized.
Dry tissues were weighed and extracted with 5 mL of methanol/chloroform mixture (65:35) using a shaker for 5 hours in the dark at room temperature. The extract was centrifuged at 13,000 rpm for 10 minutes at 4° C. The supernatant was evaporated under nitrogen gas and reconstituted in methanol/acetonitrile (50:50).

[6] = tested on: NCl/ADR-RES drug resistant human ovarian cancer cells; test: In vitro cytotoxicity, MTT assay; format: cell-based
Description: On the fifth day cytotoxicity analysis was performed using an MTT assay. Data points represent average±SE (n=4).
On day 5 cytotoxicity analysis was measured using an MTT assay. Data points represent average±SE (n=4).
The cells were washed twice with ice cold phosphate buffer and replaced with fresh media. […] On day 5 cytotoxicity analysis was performed using an MTT assay.
On the fifth day cytotoxicity analysis was performed using the MTT assay.

| Structure (SMILES) | critical micellar concentration (CMC) [1] | solubility in water ([2]; free compound) | Log P ([3]; Table 3, cargo compound itself) | IC50 [4] | solubility in water ([2]; free drug) | doxorubicin accumulation in tumor [5] | IC50 ([6]; 120 h, doxorubicin 31.25 nM to 1000 nM, MTT on day 5, read-out: IC50) | IC50 ([6]; 96 h) | Log P [3] |
| --- | --- | --- | --- | --- | --- | --- | --- | --- | --- |
| CCCCCCCCCCCCOS(=O)(=O)[O-].[Na+] [sodium dodecyl sulfate] | about 2.304 g/L |  |  |  |  |  |  |  |  |
| CCN(CC)c1ccc2nc3c4ccccc4c(=O)cc-3oc2c1 [Nile red] |  | practically insoluble in water | 5 |  |  |  |  |  |  |
| COc1cccc2c1C(=O)c1c(O)c3c(c(O)c1C2=O)C[C@@](O)(C(=O)CO)C[C@@H]3O[C@H]1C[C@H](N)[C@H](O)[C@H](C)O1 [Doxorubicin] |  | practically insoluble in water |  | 148 nM | 0.015 µg/mL (≈ 0.0276 µM) | no drug accumulation | 126 nM |  |  |
| COc1cc(/C=C/C(=O)/C=C(O)/C=C/c2ccc(O)c(OC)c2)ccc1O [Curcumin] |  | practically insoluble in water | 2.5 |  | 0.011 µg/mL (≈ 0.0299 µM) |  |  | 104 nM | 2.5 |

Source: patent US8697098B2, “Polymer conjugated protein micelles” (South Dakota State University, priority 2011, dated 2014)
